Results reported in publication PMC10447463, “Data-mining unveils structure–property–activity correlation of viral infectivity enhancing self-assembling peptides” (Nature Communications, 2023).

What was measured:
[1] = format: physicochemical; set-up: key to Fibril / Fibril Formation / TEM 2cat / Fibril: 1 = fibrils present; 0 non-fibrillar structures; settings: for Fibril / Fibril Formation: TEM, 1 mg/mL, uranyl acetate stain, qualitative
[2] = Zeta-potential measurement; format: physicochemical; settings: for Zeta pot. / mV: 1 mg/mL in PBS pH 7.4 from 10 mg/mL DMSO stock, 1 d RT, 60 µL diluted in 600 µL 1 mM KCl, Zetasizer Nano ZS, Smoluchowski, mean of triplicate; for Zeta-Potential / mV: mean, Figure 7B
How it was run: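 Peptides diluted from DMSO stock into PBS pH 7.4 to 1 mg/mL and aged 1 d at RT, then diluted into 1 mM aqueous KCl. Zeta potential derived from electrophoretic mobility via Smoluchowski; triplicates, averaged over two independent experiments.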

[3] = Turbidity, derived count rate of scattered light; format: physicochemical; settings: for Count Rate / kcps: derived count rate of scattered light at 633 nm, 173°, from zeta-potential measurement, 0.1 mg/mL in 1 mM KCl after 1 d at 1 mg/mL in PBS, turbidity / microscopic aggregation, mean of triplicate
How it was run: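 Samples: 1 mg/mL in PBS pH 7.4 (from DMSO), 1 d at RT, then diluted in 1 mM KCl immediately before measurement. Triplicates, two independent runs averaged.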

[4] = Turbidity, derived count rate of scattered light; format: physicochemical; settings: log10 of derived count rate of scattered light, Figure 7B

| Substance | Fibril / Fibril Formation [1] | Zeta pot. / mV [2] | Zeta-Potential / mV [2] | Count Rate / kcps [3] | Log10 Count Rate [4] | TEM: 1= fibrils, 0= aggregates (micelle), 0.5 = aggregates and fibrils, -1 = nothing obersved, STD prep ([1]; STD prep) | Zeta Pot. / mV [2] | Zeta category ( +1 = if > 4 mV;-1 = if < -4 mV; 0 = -4mV to 4 mV) [2] | Zeta Count Rate Category ([3]; category 1 / 0, no key given) | Zeta Count Rate / kcps ([3]; derived count rate of scattered light) |
| --- | --- | --- | --- | --- | --- | --- | --- | --- | --- | --- |
| DFNKF [reference compound] | 1 | -11.8 mV | -11.77 mV | 1065 kcps | 3.027 |  |  |  |  |  |
| GAITIG-NH2 [reference compound] | 0 | -5.4 mV | -5.36 mV | 30 kcps | 1.474 |  |  |  |  |  |
| GNNQQNY [reference compound] | 0 | -6.6 mV | -6.62 mV | 37 kcps | 1.572 |  |  |  |  |  |
| GQTVTK [reference compound] | 0 | -5.3 mV | -5.26 mV | 34 kcps | 1.536 |  |  |  |  |  |
| IIKIIK [reference compound] | 0 | -7.0 mV | -7 mV | 4 kcps | 0.6128 |  |  |  |  |  |
| NSGAITIG-NH2 [reference compound] | 0 | -8.4 mV | -8.45 mV | 20 kcps | 1.294 |  |  |  |  |  |
| RCELARTLKR [reference compound] | 0 | -0.9 mV | -0.85 mV | 78 kcps | 1.893 |  |  |  |  |  |
| RIRIQIC [PS07] |  |  |  |  |  | 1 | 16 mV | 1 (+1 = if > 4 mV) | 1 | 191.1 kcps |
| VLYVGSKT [reference compound] | 0 | -9.1 mV | -9.07 mV | 24 kcps | 1.386 |  |  |  |  |  |
| VQIVYK [reference compound] | 0 | -2.7 mV | -2.66 mV | 26 kcps | 1.414 |  |  |  |  |  |
